Data from US10357481B2 (MERCK SHARP & DOHME CORP., priority 2015, dated 2019).

Molecular target: T1, human PDE2A1 (Homo sapiens, UniProt O00408)
T1 construct: GST; purchased BPS Bioscience (San Diego, Calif.) 60020; host or cells: insect cells
Test: IMAP FP PDE selectivity panel, human PDE2A1
Assay type: biochemical
Conditions: Lab B; read-out: Human PDE2 Ki (nM) Lab B
Description: Selectivity for PDE2, as compared to other PDE families, was assessed using the IMAP® technology. Human PDE10A2 enzyme was prepared from cytosolic fractions of transiently transfected HEK cells.
Assays for PDE 1 through 11 were performed in parallel at room temperature in 384-well microtiter plates with an incubation volume of 20.2 μL. Solutions of test compounds were prepared in DMSO and serially diluted with DMSO to yield 30 μL of each of ten solutions differing by 3-fold in concentration, at 32 serial dilutions per plate. […] A Labcyte POD 810 (Labcyte, Sunnyvale, Calif.) was used to dispense 200 nL from each well of the titration plate to make eleven copies of the assay plate for each titration, one copy for each PDE enzyme. A solution of each enzyme (dilution from aliquots, sufficient to produce 20% substrate conversion) and a separate solution of FAM-labeled cAMP or FAM-labeled cGMP from Molecular Devices (Sunnyvale, Calif., product # R7506 or cGMP#R7508), at a final concentration of 50 nM were made in the assay buffer (10 mM Tris HCl, pH 7.2, 10 mM MgCl2, 0.05% NaN3 0.01% Tween-20, and 1 mM DTT). Note that the substrate for PDE2 is 50 nM FAM cAMP containing 1000 nM of cGMP. The enzyme and the substrate were then added to the assay plates in two consecutive additions of 10 μL and then shaken to mix. The reaction was allowed to proceed at room temperature for 60 minutes. A binding solution was then made from the kit components, comprised of 80% Solution A, 20% Solution B and binding reagent at a volume of 1/600 the total binding solution. The enzymatic reaction was stopped by addition of 60 μL of the binding solution to each well of the assay plate. The plates were sealed and shaken for 10 seconds. The plates were incubated at room temperature for one hour, then the parallel and perpendicular fluorescence was measured using a Tecan Genios Pro plate reader (Tecan, Switzerland). […] The intrinsic PDE2 inhibitory activity of a compound which may be used in accordance with the present invention may be determined by these assays.

T1 sequence (O00408 1-920 isoform O00408-2): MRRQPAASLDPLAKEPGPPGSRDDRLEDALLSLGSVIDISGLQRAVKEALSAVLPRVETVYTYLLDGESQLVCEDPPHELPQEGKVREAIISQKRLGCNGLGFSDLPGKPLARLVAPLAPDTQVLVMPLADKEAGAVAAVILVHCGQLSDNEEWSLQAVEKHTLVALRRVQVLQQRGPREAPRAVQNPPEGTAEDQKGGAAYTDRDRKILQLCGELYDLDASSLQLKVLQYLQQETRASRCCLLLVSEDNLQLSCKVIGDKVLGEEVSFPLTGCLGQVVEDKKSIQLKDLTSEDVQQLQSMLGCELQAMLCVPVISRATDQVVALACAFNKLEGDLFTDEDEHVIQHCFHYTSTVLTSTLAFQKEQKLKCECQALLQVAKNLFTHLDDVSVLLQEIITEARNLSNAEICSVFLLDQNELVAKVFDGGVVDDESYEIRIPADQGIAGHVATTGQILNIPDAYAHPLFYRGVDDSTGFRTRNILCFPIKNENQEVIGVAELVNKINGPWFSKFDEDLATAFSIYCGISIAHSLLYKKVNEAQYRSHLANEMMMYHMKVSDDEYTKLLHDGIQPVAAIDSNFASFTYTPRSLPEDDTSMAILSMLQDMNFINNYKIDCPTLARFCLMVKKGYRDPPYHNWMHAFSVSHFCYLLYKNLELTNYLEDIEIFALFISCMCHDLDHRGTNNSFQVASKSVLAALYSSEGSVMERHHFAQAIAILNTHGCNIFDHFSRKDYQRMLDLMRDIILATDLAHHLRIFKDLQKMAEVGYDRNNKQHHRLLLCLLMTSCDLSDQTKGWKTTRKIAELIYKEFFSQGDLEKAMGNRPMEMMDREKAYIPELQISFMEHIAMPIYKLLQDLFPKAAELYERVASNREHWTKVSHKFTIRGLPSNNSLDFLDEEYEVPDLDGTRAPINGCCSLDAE

Ki | Structure (SMILES)
81 nM | CC(C)(O)C(Nc1cc(C(F)(F)F)nc2ncnn12)c1ccc(C(F)(F)F)cc1Cl (single isomer, unassigned) [Example 160, (1R or S)-1-[2-chloro-4-(trifluoromethyl)phenyl]-2-methyl-1-{[5-(trifluoromethyl)[1,2,4]triazolo[1,5-a]pyrimidin-7-yl]amino}propan-2-ol]
19 nM | CC(C)(C)c1ccc(C(Nc2cc(C(F)(F)F)nc3ncnn23)C(C)(C)O)cc1 (single isomer, unassigned) [Example 161, (1S or S)-1-(4-tert-Butylphenyl)-2-methyl-1-{[5-(trifluoromethyl) [1,2,4]triazolo [1,5-a]pyrimidin-7-yl]amino} propan-2-ol]
~2050 nM | CC(C)(C)c1ccc(C(Nc2cc(C(F)(F)F)nc3ncnn23)C(C)(C)O)cc1 (single isomer, unassigned) [Example 162, (1R or S)-1-(4-tert-Butylphenyl)-2-methyl-1-{[5-(trifluoromethyl) [1,2,4]triazolo [1,5-a]pyrimidin-7-yl]amino} propan-2-ol]
77 nM | CC(C)(O)C(Nc1cc(C(F)(F)F)nc2ncnn12)c1ccc(C(F)F)cc1 (single isomer, unassigned) [Example 163, (1S or R)-1-[4-(Difluoromethyl)phenyl]-2-methyl-1-{[5-(trifluoromethyl) [1,2,4]triazolo [1,5-a]pyrimidin-7-yl]amino} propan-2-ol]
> 2960 nM | CC(C)(O)C(Nc1cc(C(F)(F)F)nc2ncnn12)c1ccc(C(F)F)cc1 (single isomer, unassigned) [Example 164, (1R or S)-1-[4-(Difluoromethyl)phenyl]-2-methyl-1-{[5-(trifluoromethyl) [1,2,4]triazolo [1,5-a]pyrimidin-7-yl]amino} propan-2-ol]
52 nM | CC(C)(O)C(Nc1cc(C(F)(F)F)nc2ncnn12)c1ccc(OC(F)F)cc1 (single isomer, unassigned) [Example 165, (1S or R)-1-[4-(Difluoromethoxy)phenyl]-2-methyl-1-{[5-(trifluoromethyl) [1,2,4]triazolo [1,5-a]pyrimidin-7-yl]amino} propan-2-ol]
~2190 nM | CC(C)(O)C(Nc1cc(C(F)(F)F)nc2ncnn12)c1ccc(OC(F)F)cc1 (single isomer, unassigned) [Example 166, (1R or S)-1-[4-(Difluoromethoxy)phenyl]-2-methyl-1-{[5-(trifluoromethyl) [1,2,4]triazolo [1,5-a]pyrimidin-7-yl]amino} propan-2-ol]
184 nM | CC(C)(O)C(Nc1cc(C(F)(F)F)nc2ncnn12)c1ccc2c(c1)OC(F)(F)O2 (single isomer, unassigned) [Example 167, (1S or R)-1-(2,2-Difluoro-1,3-benzodioxol-5-yl)-2-methyl-1-{[5-(trifluoromethyl) [1,2,4]triazolo [1,5-a]pyrimidin-7-yl]amino} propan-2-ol]
> 2960 nM | CC(C)(O)C(Nc1cc(C(F)(F)F)nc2ncnn12)c1ccc2c(c1)OC(F)(F)O2 (single isomer, unassigned) [Example 168, (1R or S)-1-(2,2-Difluoro-1,3-benzodioxol-5-yl)-2-methyl-1-{[5-(trifluoromethyl) [1,2,4]triazolo [1,5-a]pyrimidin-7-yl]amino} propan-2-ol]
50 nM | CC(C)(O)C(Nc1cc(C(F)(F)F)nc2ncnn12)c1ccc(CC(F)(F)F)cc1 (single isomer, unassigned) [Example 169, (1S or R)-2-Methyl-1-[4-(2,2,2-trifluoroethyl)phenyl]-1-{[5-(trifluoromethyl) [1,2,4]triazolo [1,5-a]pyrimidin-7-yl]amino} propan-2-ol]
> 2960 nM | CC(C)(O)C(Nc1cc(C(F)(F)F)nc2ncnn12)c1ccc(CC(F)(F)F)cc1 (single isomer, unassigned) [Example 170, (1R or S)-2-Methyl-1-[4-(2,2,2-trifluoroethyl)phenyl]-1-{[5-(trifluoromethyl) [1,2,4]triazolo [1,5-a]pyrimidin-7-yl]amino} propan-2-ol]
~1560 nM | CC(C)(O)C(Nc1cc(C(F)(F)F)nc2ncnn12)c1ccc(OC(F)(F)F)cc1F (single isomer, unassigned) [Example 171, (1S or R)-1-[2-Fluoro-4-(trifluoromethoxy)phenyl]-2-methyl-1-{[5-(trifluoromethyl) [1,2,4]triazolo [1,5-a]pyrimidin-7-yl]amino} propan-2-ol]
25 nM | CC(C)(O)C(Nc1cc(C(F)(F)F)nc2ncnn12)c1ccc(OC(F)(F)F)cc1F (single isomer, unassigned) [Example 172, (1R or S)-1-[2-Fluoro-4-(trifluoromethoxy)phenyl]-2-methyl-1-{[5-(trifluoromethyl) [1,2,4]triazolo [1,5-a]pyrimidin-7-yl]amino} propan-2-ol]
> 2960 nM | CC(C)(O)C(Nc1cc(C(F)(F)F)nc2ncnn12)c1ccc(C(F)(F)F)cc1F (single isomer, unassigned) [Example 173, (1S or R)-1-[2-Fluoro-4-(trifluoromethyl)phenyl]-2-methyl-1-{[5-(trifluoromethyl) [1,2,4]triazolo [1,5-a]pyrimidin-7-yl]amino} propan-2-ol]
29 nM | CC(C)(O)C(Nc1cc(C(F)(F)F)nc2ncnn12)c1ccc(C(F)(F)F)cc1F (single isomer, unassigned) [Example 174, (1R or S)-1-[2-Fluoro-4-(trifluoromethyl)phenyl]-2-methyl-1-{[5-(trifluoromethyl) [1,2,4]triazolo [1,5-a]pyrimidin-7-yl]amino} propan-2-ol]
14 nM | CC(C)(O)C(Nc1cc(C(F)(F)F)nc2ncnn12)c1ccc(OC(F)(F)F)c(F)c1 (single isomer, unassigned) [Example 175, (1S or R)-1-[3-Fluoro-4-(trifluoromethoxy)phenyl]-2-methyl-1-{[5-(trifluoromethyl) [1,2,4]triazolo [1,5-a]pyrimidin-7-yl]amino} propan-2-ol]
~1310 nM | CC(C)(O)C(Nc1cc(C(F)(F)F)nc2ncnn12)c1ccc(OC(F)(F)F)c(F)c1 (single isomer, unassigned) [Example 176, (1R or S)-1-[3-Fluoro-4-(trifluoromethoxy)phenyl]-2-methyl-1-{[5-(trifluoromethyl) [1,2,4]triazolo [1,5-a]pyrimidin-7-yl]amino} propan-2-ol]
8.4 nM | CC(C)(O)[C@@H](Nc1cc(C(F)(F)F)nc2ncnn12)c1ccc(S(F)(F)(F)(F)F)cc1 (single isomer, unassigned) [Example 177]
421 nM | CC(C)(O)[C@H](Nc1cc(C(F)(F)F)nc2ncnn12)c1ccc(S(F)(F)(F)(F)F)cc1 (single isomer, unassigned) [Example 178]
> 2960 nM | CC1(c2ccc(C(Nc3cc(C(F)(F)F)nc4ncnn34)C(C)(C)O)cc2)CC1 (single isomer, unassigned) [Example 179, (1S or R)-2-Methyl-1-[4-(1-methylcyclopropyl)phenyl]-1-{[5-(trifluoromethyl) [1,2,4]triazolo [1,5-a]pyrimidin-7-yl]amino} propan-2-ol]
12 nM | CC1(c2ccc(C(Nc3cc(C(F)(F)F)nc4ncnn34)C(C)(C)O)cc2)CC1 (single isomer, unassigned) [Example 180, (1R or S)-2-Methyl-1-[4-(1-methylcyclopropyl)phenyl]-1-{[5-(trifluoromethyl) [1,2,4]triazolo [1,5-a]pyrimidin-7-yl]amino} propan-2-ol]
32 nM | CC(C)(O)C(Nc1cc(C(F)F)nc2ncnn12)c1ccc(OC(F)F)cc1F (single isomer, unassigned) [Example 181]
> 2960 nM | CC(C)(O)C(Nc1cc(C(F)F)nc2ncnn12)c1ccc(OC(F)F)cc1F (single isomer, unassigned) [Example 182]
15 nM | CC(C)(O)C(Nc1cc(C(F)F)nc2ncnn12)c1ccc(OC(F)F)cc1Cl (single isomer, unassigned) [Example 183, (1S or R)-[2-Chloro-4-(difluoromethoxy)phenyl]-1-{[5-(difluoromethyl) [1,2,4]triazolo [1,5-a]pyrimidin-7-yl]amino}-2-methylpropan-2-ol]
68 nM | CC(C)(O)C(Nc1cc(C(F)F)nc2ncnn12)c1ccc(OC(F)F)cc1Cl (single isomer, unassigned) [Example 184, (1R or S)-[2-Chloro-4-(difluoromethoxy)phenyl]-1-{[5-(difluoromethyl) [1,2,4]triazolo [1,5-a]pyrimidin-7-yl]amino}-2-methylpropan-2-ol]
